Values quoted from earlier work in patent US20070166367A1, “Adept or gdept producing acetaldehyde” (priority 2004, published 2007).
Like-named read-outs stand apart in the source and are kept apart here.

Experiments:
[1] = in vivo; cited from earlier work
[2] = ethanol fed animals, cited from earlier work
[3] = molecular target: T1, aldehyde dehydrogenase 1 (ALDH1) (Homo sapiens, UniProt P00352); details: cited from earlier work
T1 sequence (P00352 1-501): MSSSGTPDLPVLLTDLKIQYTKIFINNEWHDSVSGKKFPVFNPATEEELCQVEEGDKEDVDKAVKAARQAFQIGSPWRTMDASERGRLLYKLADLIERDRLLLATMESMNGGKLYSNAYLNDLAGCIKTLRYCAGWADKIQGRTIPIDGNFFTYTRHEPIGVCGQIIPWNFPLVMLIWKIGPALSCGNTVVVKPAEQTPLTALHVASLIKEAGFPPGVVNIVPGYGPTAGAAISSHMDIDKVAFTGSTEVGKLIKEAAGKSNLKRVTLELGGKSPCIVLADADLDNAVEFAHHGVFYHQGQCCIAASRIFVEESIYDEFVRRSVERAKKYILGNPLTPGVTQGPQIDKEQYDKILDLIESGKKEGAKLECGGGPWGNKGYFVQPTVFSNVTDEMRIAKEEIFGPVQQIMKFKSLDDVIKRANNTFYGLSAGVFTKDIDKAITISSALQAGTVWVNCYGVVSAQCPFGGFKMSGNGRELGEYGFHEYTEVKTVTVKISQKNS

[4] = system: CaCo-2 (Human colorectal cancer cells); details: cited from earlier work; for Doubling Time: 72 hrs

Q: For `CC=O` [acetaldehyde], which “level described for systemic acetaldehyde toxicity” value [1] is on record?
A: 40 to 60 µM

Q: And the cellular conc ([2]; colon)?
A: about 250 μM

Q: And the “Acetaldehyde levels in colonic contents” value [2]?
A: exceed 3 mM

Q: And the Km [3]?
A: 22 µM

Q: What about the Cytotoxicity ([4]; 500 μM and 1000 μM acetaldehyde for 72 hrs) of the same molecule?
A: No significant effects.

Q: What about the “Doubling Time” value ([4]; 500 μM) of the same molecule?
A: 150 % of control

Q: And the “Doubling Time” value ([4]; 1000 μM)?
A: 270 % of control
